Measurements from patent publication US20050136017A1, “Hair relaxing composition comprising at least one non-hydroxide imine” (priority 2003, published 2005).

Experiments:
[1] = Relaxing of naturally curly/frizzy African hair with a simplified aqueous relaxing composition
Method: (§1) A simplified relaxing composition was prepared, containing, as relaxing active agent, 1,1-dimethylbiguanide (Registry Number [1115-70-4]) at a concentration of 0.75M in water. The pH of the composition was 13.6. The composition was applied to naturally curly/frizzy African hair for 15 minutes at a temperature of 30° C.
as §1, with “of 0.5M” for “of 0.75M”, “was 13.5. This” for “was 13.6. The”, “for 25” for “for 15”
(§2) A simplified relaxing composition was prepared, containing as relaxing active agent, 1,3,4,6,7,8-hexahydro-2H-pyrimido[1,2-a]pyrimidine (Registry Number [5807-14-7]) at a concentration of 0.7M in water. The pH of the composition was 13.5. This composition was applied to naturally curly/frizzy African hair for 15 minutes at a temperature of 30° C.
as §2, with “0.5M” for “0.7M”, “13.4.” for “13.5.”, “25” for “15”

[2] = pH of the simplified relaxing composition; format: physicochemical
Method: as §1
as §1, with “of 0.5M” for “of 0.75M”, “was 13.5. This” for “was 13.6. The”, “for 25” for “for 15”
as §2
as §2, with “0.5M” for “0.7M”, “13.4.” for “13.5.”, “25” for “15”

[3] = 0.5M in water (Examples 2 and 4)

Row | pH of the composition [2, 3] | pH of the composition ([2]; 0.75M in water (Example 1)) | pH of the composition ([2]; 0.7M in water (Example 3)) | Compound | hair relaxing result (relaxing, combing/styling, feel) ([1]; 0.5M in water, pH 13.5, applied 25 minutes at 30° C. (Example 2)) | hair relaxing result (relaxing, combing/styling, feel) ([1]; 0.75M in water, pH 13.6, applied 15 minutes at 30° C. (Example 1)) | hair relaxing result (relaxing, combing/styling, feel) ([1]; 0.5M in water, pH 13.4, applied 25 minutes at 30° C. (Example 4)) | hair relaxing result (relaxing, combing/styling, feel) ([1]; 0.7M in water, pH 13.5, applied 15 minutes at 30° C. (Example 3))
1 | 13.5 | 13.6 |  | CN(C)C(=N)NC(=N)N [1,1-dimethylbiguanide] | efficiently relaxed, easy to comb and style, and felt soft | efficiently relaxed, easy to comb and style, and felt soft |  | 
2 | 13.4 |  | 13.5 | C1CN=C2NCCCN2C1 [1,3,4,6,7,8-hexahydro-2H-pyrimido[1,2-a]pyrimidine] |  |  | efficiently relaxed, easy to comb and style, and felt soft | efficiently relaxed, easy to comb and style, and felt soft
